Laboratory results: patent publication US20050148069A1, “IGF-1 instructs multipotent adult CNS neural stem cells to an oligodendroglial lineage” (priority 2003, published 2005)

How the values were obtained:
[1] = tested on: adult hippocampus-derived neural progenitor cells; assay: in vitro differentiation analysis of neural progenitor cells (immunocytochemistry for lineage markers); type: cell-based, rat
Experimental: The neural progenitor cells isolated from the hippocampus of female Fischer 344 used in this study have been characterized previously (Gage et al., 1995; Palmer et al., 1997). The whole brain-derived neural stem cells from PIO ICR mice were isolated and cultured according to the methods as described, with slight modifications. Cells were cultured as previously described (Gage et al., 1995; Ray et al., 1993). Cells between passages 10 and 20 were used for in vitro differentiation analyses. To induce differentiation, cells were plated into 4-well chamber slides at a density of 55,000-75,000 cells per well and were allowed to proliferate in N2-supplemented (Invitrogen) DMEM:F12 (Omega Scientific) medium containing 20 ng/ml FGF-2 (PeproTech, Inc.) for 24 hours. FGF-2 was then withdrawn and cells were subsequently treated with differentiation media. […] For IGF-induction experiments, cells were trypsinized, washed with 1× PBS, and plated into insulin-free N2 medium. […] In some cultures, BrdU (2.5 μM, Sigma) was added to label dividing cells, and Q-VD-OPh (2 μM, Enzyme Systems Products) was added to prevent apoptosis.
Cells were fixed with 4% paraformaldehyde, followed by immunocytochemical staining as described (Palmer et al., 1999). Labeled cells were visualized using a Nikon E800 upright microscope or a Nikon E600 inverted microscope (Nikon Inc.) and a Spot RT CCD camera (Diagnostic Instruments Inc.). 4′,6-diamidino-2-phenylindole (DAPI) was used to identify individual cells. Quantification of cell phenotypes was with StereoInvestigator (MicroBrightfield Inc.); for each marker, 500-1000 cells were sampled systematically from standardized fields at 40×magnification. For quantification of live/dead cells, images were taken of cultures live-stained with propidum iodide (1 μg/ml; Molecular Probes) and Hoescht 33342 (1 μg/ml; Sigma) at 10×magnification, and cells were counted using Image-Pro (Media Cybernetics). The following primary antibodies were used: rabbit anti-Tuj1 (1:7500;Covance), mouse anti-RIP (1:25-1:75; Hybridoma Bank); guinea pig anti-GFAP (1:500-1:2500; Advanced Immunochemical, Inc.); rabbit anti-MBP (1:500; Chemicon International Inc.), rat anti-BrdU (1:400; Accurate). Secondary antibodies were all from Jackson ImmunoResearch and used at 1:250 dilution. The detection of BrdU in cultured cells required treatment in 2 N HCL at 37° C. for 30 min (Palmer et al., 1999). All experiments were independently replicated at least 3 times.

[2] = tested on: adult hippocampus-derived neural progenitor cells; assay: proliferation by BrdU incorporation; type: cell-based, rat; conditions: 500 ng/ml IGF-I
Experimental: We next determined whether proliferation of progenitors might contribute to the observed increase in oligodendrocyte differentiation. Bromodeoxyuridine (BrdU) (2.5 μM) was added to parallel cultures for 12 hours at times 0-, 12-, 24-, and 36-h after plating, followed by fixation and quantification of total cell numbers and BrdU+ cells. We counted the progenitor cells (evidenced by a lack of RIP staining) that were labeled with BrdU at each time point. For cells grown in the absence of IGF-I, we observed a progressive decrease in the percentage of cells that were proliferating (BrdU+) during the 48-h experiments (FIG. 3B). […] This initial decrease in proliferation is most likely due to FGF-2 mitogen withdrawal. […]
Cells were fixed with 4% paraformaldehyde, followed by immunocytochemical staining as described (Palmer et al., 1999). […] Quantification of cell phenotypes was with StereoInvestigator (MicroBrightfield Inc.); for each marker, 500-1000 cells were sampled systematically from standardized fields at 40×magnification. For quantification of live/dead cells, images were taken of cultures live-stained with propidum iodide (1 μg/ml; Molecular Probes) and Hoescht 33342 (1 μg/ml; Sigma) at 10×magnification, and cells were counted using Image-Pro (Media Cybernetics). […]

Noggin = assay: quantitative real time PCR, Noggin expression; type: cell-based, rat; conditions: 500 ng/ml IGF-I, up to 48 hours, normalized to GAPDH
Excerpt: (§1) If IGF-I induction of oligodendrocyte differentiation involves the inhibition of BMP signaling, a change in the expression of BMP antagonists after IGF-I treatment might be observed. In addition to extracellular antagonists of BMP signaling, such as Noggin, intracellular proteins that can interfere with downstream BMP receptor signaling, called inhibitory Smads (Smad6, 7), have also been identified (Christian and Nakayama, 1999). Therefore, we performed Q-PCR analyses of cultures treated with IGF-I after various time points (up to 48 hours) and examined the relative fold change (normalized to an internal control; see Methods) of Noggin, Smad6, 7 (FIG. 6, A-C). Expression of Noggin, Smad6, 7 increased by at least 6-, 5-, and 2-fold, respectively, after IGF-I treatment (p<0.05, t-test). There may be an unexplained downregulation of Smad6 at the 48-h time point.
(§2) Total RNA was isolated from cell cultures using RNeasy columns (Qiagen). For real-time quantitative PCR, reactions were carried out essentially as described (Zhao et al., 2001). The relative amount of the tested message was normalized to the level of the internal control message, GAPDH. […] Primer sequences are available upon request.

Smad7 = assay: quantitative real time PCR, Smad7 expression; type: cell-based, rat; conditions: 500 ng/ml IGF-I, up to 48 hours, normalized to GAPDH
Excerpt: as §1, §2

[3] = tested on: multipotent neural progenitor cells derived from the whole brain of P10 ICR mice; assay: differentiation of whole brain-derived multipotent neural progenitor cells; type: cell-based, mouse; conditions: IGF-I treatment, primary cultures (unpublished data)
Experimental: The neural progenitor cells isolated from the hippocampus of female Fischer 344 used in this study have been characterized previously (Gage et al., 1995; Palmer et al., 1997). The whole brain-derived neural stem cells from PIO ICR mice were isolated and cultured according to the methods as described, with slight modifications. Cells were cultured as previously described (Gage et al., 1995; Ray et al., 1993). Cells between passages 10 and 20 were used for in vitro differentiation analyses. To induce differentiation, cells were plated into 4-well chamber slides at a density of 55,000-75,000 cells per well and were allowed to proliferate in N2-supplemented (Invitrogen) DMEM:F12 (Omega Scientific) medium containing 20 ng/ml FGF-2 (PeproTech, Inc.) for 24 hours. FGF-2 was then withdrawn and cells were subsequently treated with differentiation media. […] For IGF-induction experiments, cells were trypsinized, washed with 1× PBS, and plated into insulin-free N2 medium. Either human recombinant IGF-I or IGF-II (500 ng/ml; R&D Systems) or insulin (500 ng/ml; Sigma) was added for 4 days, except when indicated otherwise. In some cultures, BrdU (2.5 μM, Sigma) was added to label dividing cells, and Q-VD-OPh (2 μM, Enzyme Systems Products) was added to prevent apoptosis.

IGF-I: human recombinant IGF-I (R&D Systems), growth factor polypeptide
RIP+ cells ([1]; 500 ng/ml IGF-1 added to Q-VD-OPh-treated 2-day cultures): large increase in RIP+ cells
total cells positive for myelin basic protein (MBP) ([1]; 500 ng/ml IGF-I, 4-day time point): Approximately 23%
overall number of RIP+ cells over time ([1]; 500 ng/ml IGF-I, 12 h to 48 h): progressive increase in the overall number of RIP+ cells over time
percentage of RIP+ cells ([1]; 500 ng/ml, 4 days, insulin-free N2 medium): 45-55%
dose dependence of oligodendrocyte differentiation ([1]; 20-500 ng/ml, 4-day cultures): occurred in a dose-dependent manner
percentage of Tuj1-positive cells across tested concentrations ([1]; 20-500 ng/ml, 4-day cultures): did not appear to change
rank order of potency for oligodendrocyte differentiation ([1]; different concentrations (20-1000 ng/ml)): IGF-I>IGF-II>insulin
GFAP+ astrocytes ([1]; each at 500 ng/ml, 4 days): few to no GFAP+ astrocytes
oligodendrocyte-promoting effects in other rat lines ([1]; independently derived rat hippocampus progenitor cell line and clonally derived line (unpublished data)): confirmed
percentage of RIP− cells that incorporated BrdU ([2]; 12-h BrdU periods up to 48 h): decreasing trend in the first three time periods
RIP+ cells positive for BrdU ([2]; after 24 hours): significant increase in RIP+ cells positive for BrdU
relative fold change of Noggin expression (Noggin): at least 6 fold
relative fold change of Smad7 expression (Smad7): ≥ 2 fold
differentiation into oligodendrocytes [3]: exhibited a preferential differentiation into oligodendrocytes
